Patent US20030013658A1, “Small peptides and methods for treatment of asthma and inflammation” (Hisatek, LLC, priority 1997, published 2003)
Entries after “also recorded” stand apart in the source; their conditions may differ. Where no end group is shown, it is not given here. The star is where a group is joined. For = O=C*

Test system: OVA-sensitized/challenged mice
Assay: OVA allergen-induced airway inflammation mouse model, 28-day protocol, HK-X i.n. before each challenge
Format: in vivo
Excerpt: The above-described murine model reproduces key features of human asthma. Late-phase allergen-specific pulmonary disease was induced in normal BALB/c mice using ovalbumin (OVA) as allergen. One protocol includes immunization of mice with i.p. OVA on […] and 14, and intranasal (i.n.) administration of OVA on days 14, 25, 26, and 27.
In a mouse model of allergen-induced airway inflammation, the role of mast cell in airway eosinophil infiltration, mucus release, and hyper-responsiveness to methacholine was examined.
Materials were used as described above. Mice received an i.p. injection of 0.2 ml (100 ug) of OVA complexed with aluminum potassium sulfate (alum) on day 0 and 14. On days 14, 25, 26, and 27, mice were anesthetized with 0.2 ml i.p. of ketamine (0.44 mg/ml)/xylazine (6.3 mg/ml) in normal saline before receiving an intranasal (i.n.) dose of 100 ug OVA in 0.05 ml normal saline on days 25, 26, and 27. Lung tissue was obtained 24 hours after the last i.n. challenge on day 28. The control group received normal saline with alum i.p. on days 0 and 14 and normal saline without alum i.n. on days 14, 25, 26, and 27. To assess the effect of HK-X inhibition on OVA induced asthma, HK-X (10 ug/ml) was given i.n. 30 minutes before each i.n challenge on days 25, 26, and 27.
After tying off the left lung at the mainstem bronchus, the right lung was […] three times with 0.4 ml of normal saline, Bronchoalveolar lavage (BAL) fluid cells from a 0.05 ml aliquot of the pooled sample were counted using a hemocytometer and the remaining fluid centrifuged at 4° C. for 10 minutes at 200 g. After resuspension of the cell pellet in normal saline containing 10% BSA, BAL cell smears were made on glass slides. To stain eosinophils, dried slides were stained with Discombe's diluting fluid (0.05% aqueous eosin and 5% (v/v) acetone in distilled water) for 5-8 minutes, rinsed with water for 0.5 minutes and counterstained with 0.07 methylene blue for 2 minutes.
Following BAL, the trachea and left lung (upper and lower lobes) were obtained and fixed in 10% buffered formalin solution at 20° C. for1S hours. After the tissues were processed and embeded in paraffin, the tissues were cut into 5 μm sections and stained with Discombe's solution and counterstained with methylene blue as described above or stained with Hematoxylin and eosin. The eosinophil number per unit airway area (2200 μm^2) was determined by morphometry as previously described. Airway mucus was identified by a variety of staining methods, i.e., methylene blue, Hematoxylin and eosin, mucicarmine, toluidine blue, alcian blue, and alcian blue/periodic acid Schiff (PAS) reaction. Mucin was stained with mucicarmine solution; metanil yellow counterstain was employed. Mucin and sialic acid-rich non-sulfated mucosubstances were stained metachromatically with toluidine blue, pH 4.5. Acidic mucin and sulfated mucosubstances were stained with alcian blue, pH 2.5; nuclear fast red counterstain was used. Neutral and acidic mucosubstances were identified by alcian blue, pH 2.5 and PAS reaction. The degree of mucus plugging of the airways (0.5˜0.8 mm in diameter) also was assessed by morphometry. The percent occlusion of airway diameter by mucus was classified on a semiquantitative scale from 0 to +++++. The histologic and morphometric analyses protocol design were performed by individuals blinded to the protocol design.
Mucus glycoproteins in BAL fluid were assayed by slot blotting and PAS staining as described. Nitrocellulose membranes (0.2 um pore size; Schleicher & Schuell, Keene, N.H.) were wetted in distilled water and then in normal saline before placement in a Minifold II 72-well slot blot apparatus (Schleicher & Schuell). The BAL fluid samples (0.05 ml) and aliquots (0.05-0.75 ml) of a stock solution (2 ug/ml) of human respiratory mucin glycoprotein were blotted onto the nitrocellulose membranes by water suction vacuum, and mucus glycoproteins were visualized by PAS reaction. […]

f-Met-Leu-Phe-Phe (For-MLFF) [Example 9]
cellular infiltration during asthmatic attack (10 μg HK-X intranasally 30 minutes prior to challenge, FIG. 9): reduces the cellular infiltration
eosinophil influx into lung tissue and BAL fluid (HK-X 10 ug/ml i.n. 30 minutes before each i.n. challenge, day 28): markedly reduced eosinophil influx into the lung tissue and BAL fluid
airway mucus release / secretion (HK-X i.n. 30 minutes before each OVA challenge days 25, 26, 27, histopathology, listed as HK-X): prevented airway mucus release; also recorded: blocked the airway mucus release; also recorded: prevents the airway mucus secretion; also recorded: reduces the mucus secretion in airways
number of eosinophils in the BAL fluid (OVA-sensitized/challenged mice treated with HK-X, in ×10^5 cells): 0.57+0.11 ×10^5
mucus cell induction by OVA immunization and challenge (alcian blue histochemistry, FIG. 10): prevents the mucus cell induction by OVA immunization and challenge
reduction of eosinophil influx into the lung interstitium (morphometric analysis, p<0.006 compared to OVA without HK-X, FIG. 11): 90%
